Measurements as given in BindingDB's records for doi:10.1016/S0960-894X(00)80254-1 (1991).

Test: Inhibition of angiotensin I phosphorylation catalyzed by the protein-tyrosine kinase p56 lck partially purified from bovine thymus.
Molecule `O=C(Nc1ccncc1)c1cccnc1` has an IC50 of 2120 µM.
Work on `COc1ccc(/C=C/c2ccccn2)cc1OC` [2-[(E)-2-(3,4-Dimethoxy-phenyl)-vinyl]-pyridine] yielded an IC50 of 829 µM.
For `C(=C\c1ccccn1)/c1ccccn1` [2-[(E)-2-pyridin-2-ylvinyl]pyridine], the IC50 was 1230 µM.
Work on `COc1cc(C(=O)Nc2cccnc2)cc(OC)c1OC` [3,4,5-Trimethoxy-N-pyridin-3-yl-benzamide] yielded an IC50 of 999 µM.
In the case of `COc1cc(C(=O)Nc2ccncc2)cc(OC)c1OC` [3,4,5-Trimethoxy-N-pyridin-4-yl-benzamide], the IC50 is reported as > 2780 µM.
Molecule `COc1cc(OC)cc(C(=O)Nc2ccccn2)c1` [3,5-Dimethoxy-N-pyridin-2-yl-benzamide] has an IC50 of 205 µM.
With `COc1cc(OC)cc(C(=O)Nc2ccncc2)c1` [3,5-Dimethoxy-N-pyridin-4-yl-benzamide] the IC50 was 3100 µM.
Molecule `COc1ccc(/C=C/c2cccnc2)cc1OC` [3-(3,4-dimethoxystyryl)pyridine] has an IC50 of 178 µM.
With `COc1cc(CCc2cccnc2)cc(OC)c1OC` [3-[2-(3,4,5-Trimethoxy-phenyl)-ethyl]-pyridine] the IC50 was > 2930 µM.
With `COc1ccc(CCc2cccnc2)cc1OC` [3-[2-(3,4-Dimethoxy-phenyl)-ethyl]-pyridine] the IC50 was 1320 µM.
For `COc1ccc(/C=C/c2cccnc2)cc1` [3-[(E)-2-(4-Methoxy-phenyl)-vinyl]-pyridine], the IC50 was > 3790 µM.
For `c1cc(CCc2ccncc2)ccn1` [4-(2-pyridin-4-ylethyl)pyridine], the IC50 was 2910 µM.
With `COc1cc(CNc2ccccn2)cc(OC)c1` [(3,5-Dimethoxy-benzyl)-pyridin-2-yl-amine] the IC50 was > 3280 µM.
Molecule `O=C(Nc1ccncc1)c1ccncc1` [N-Pyridin-4-yl-isonicotinamide] has an IC50 of 2320 µM.
With `COc1cc(CNc2ccccn2)cc(OC)c1OC` [Pyridin-2-yl-(3,4,5-trimethoxy-benzyl)-amine] the IC50 was > 2920 µM.
